Measurements: patent US9586951B2 (FUJIFILM Corporation, priority 2013, dated 2017)
pIC50: −log10 of the molar value.

These compounds were tested against T1, ATM (Homo sapiens, UniProt Q13315) (assay: ATM inhibition test (phosphorylation of Chk2 generated by ionizing radiation, AlphaScreen SureFire)). Details: phosphorylated Chk2 in NCI-H460 cells, ionizing radiation 8Gy, 1 hour after test compound treatment; read-out: ATM inhibitory activity.
T1 construct: detecting phosphorylation of Chk2 in a human non-small cell lung cancer cell line NCI-H460 (ATCC company); host or cells: NCI-H460 human non-small cell lung cancer cells
T1 sequence (Q13315 whole entry): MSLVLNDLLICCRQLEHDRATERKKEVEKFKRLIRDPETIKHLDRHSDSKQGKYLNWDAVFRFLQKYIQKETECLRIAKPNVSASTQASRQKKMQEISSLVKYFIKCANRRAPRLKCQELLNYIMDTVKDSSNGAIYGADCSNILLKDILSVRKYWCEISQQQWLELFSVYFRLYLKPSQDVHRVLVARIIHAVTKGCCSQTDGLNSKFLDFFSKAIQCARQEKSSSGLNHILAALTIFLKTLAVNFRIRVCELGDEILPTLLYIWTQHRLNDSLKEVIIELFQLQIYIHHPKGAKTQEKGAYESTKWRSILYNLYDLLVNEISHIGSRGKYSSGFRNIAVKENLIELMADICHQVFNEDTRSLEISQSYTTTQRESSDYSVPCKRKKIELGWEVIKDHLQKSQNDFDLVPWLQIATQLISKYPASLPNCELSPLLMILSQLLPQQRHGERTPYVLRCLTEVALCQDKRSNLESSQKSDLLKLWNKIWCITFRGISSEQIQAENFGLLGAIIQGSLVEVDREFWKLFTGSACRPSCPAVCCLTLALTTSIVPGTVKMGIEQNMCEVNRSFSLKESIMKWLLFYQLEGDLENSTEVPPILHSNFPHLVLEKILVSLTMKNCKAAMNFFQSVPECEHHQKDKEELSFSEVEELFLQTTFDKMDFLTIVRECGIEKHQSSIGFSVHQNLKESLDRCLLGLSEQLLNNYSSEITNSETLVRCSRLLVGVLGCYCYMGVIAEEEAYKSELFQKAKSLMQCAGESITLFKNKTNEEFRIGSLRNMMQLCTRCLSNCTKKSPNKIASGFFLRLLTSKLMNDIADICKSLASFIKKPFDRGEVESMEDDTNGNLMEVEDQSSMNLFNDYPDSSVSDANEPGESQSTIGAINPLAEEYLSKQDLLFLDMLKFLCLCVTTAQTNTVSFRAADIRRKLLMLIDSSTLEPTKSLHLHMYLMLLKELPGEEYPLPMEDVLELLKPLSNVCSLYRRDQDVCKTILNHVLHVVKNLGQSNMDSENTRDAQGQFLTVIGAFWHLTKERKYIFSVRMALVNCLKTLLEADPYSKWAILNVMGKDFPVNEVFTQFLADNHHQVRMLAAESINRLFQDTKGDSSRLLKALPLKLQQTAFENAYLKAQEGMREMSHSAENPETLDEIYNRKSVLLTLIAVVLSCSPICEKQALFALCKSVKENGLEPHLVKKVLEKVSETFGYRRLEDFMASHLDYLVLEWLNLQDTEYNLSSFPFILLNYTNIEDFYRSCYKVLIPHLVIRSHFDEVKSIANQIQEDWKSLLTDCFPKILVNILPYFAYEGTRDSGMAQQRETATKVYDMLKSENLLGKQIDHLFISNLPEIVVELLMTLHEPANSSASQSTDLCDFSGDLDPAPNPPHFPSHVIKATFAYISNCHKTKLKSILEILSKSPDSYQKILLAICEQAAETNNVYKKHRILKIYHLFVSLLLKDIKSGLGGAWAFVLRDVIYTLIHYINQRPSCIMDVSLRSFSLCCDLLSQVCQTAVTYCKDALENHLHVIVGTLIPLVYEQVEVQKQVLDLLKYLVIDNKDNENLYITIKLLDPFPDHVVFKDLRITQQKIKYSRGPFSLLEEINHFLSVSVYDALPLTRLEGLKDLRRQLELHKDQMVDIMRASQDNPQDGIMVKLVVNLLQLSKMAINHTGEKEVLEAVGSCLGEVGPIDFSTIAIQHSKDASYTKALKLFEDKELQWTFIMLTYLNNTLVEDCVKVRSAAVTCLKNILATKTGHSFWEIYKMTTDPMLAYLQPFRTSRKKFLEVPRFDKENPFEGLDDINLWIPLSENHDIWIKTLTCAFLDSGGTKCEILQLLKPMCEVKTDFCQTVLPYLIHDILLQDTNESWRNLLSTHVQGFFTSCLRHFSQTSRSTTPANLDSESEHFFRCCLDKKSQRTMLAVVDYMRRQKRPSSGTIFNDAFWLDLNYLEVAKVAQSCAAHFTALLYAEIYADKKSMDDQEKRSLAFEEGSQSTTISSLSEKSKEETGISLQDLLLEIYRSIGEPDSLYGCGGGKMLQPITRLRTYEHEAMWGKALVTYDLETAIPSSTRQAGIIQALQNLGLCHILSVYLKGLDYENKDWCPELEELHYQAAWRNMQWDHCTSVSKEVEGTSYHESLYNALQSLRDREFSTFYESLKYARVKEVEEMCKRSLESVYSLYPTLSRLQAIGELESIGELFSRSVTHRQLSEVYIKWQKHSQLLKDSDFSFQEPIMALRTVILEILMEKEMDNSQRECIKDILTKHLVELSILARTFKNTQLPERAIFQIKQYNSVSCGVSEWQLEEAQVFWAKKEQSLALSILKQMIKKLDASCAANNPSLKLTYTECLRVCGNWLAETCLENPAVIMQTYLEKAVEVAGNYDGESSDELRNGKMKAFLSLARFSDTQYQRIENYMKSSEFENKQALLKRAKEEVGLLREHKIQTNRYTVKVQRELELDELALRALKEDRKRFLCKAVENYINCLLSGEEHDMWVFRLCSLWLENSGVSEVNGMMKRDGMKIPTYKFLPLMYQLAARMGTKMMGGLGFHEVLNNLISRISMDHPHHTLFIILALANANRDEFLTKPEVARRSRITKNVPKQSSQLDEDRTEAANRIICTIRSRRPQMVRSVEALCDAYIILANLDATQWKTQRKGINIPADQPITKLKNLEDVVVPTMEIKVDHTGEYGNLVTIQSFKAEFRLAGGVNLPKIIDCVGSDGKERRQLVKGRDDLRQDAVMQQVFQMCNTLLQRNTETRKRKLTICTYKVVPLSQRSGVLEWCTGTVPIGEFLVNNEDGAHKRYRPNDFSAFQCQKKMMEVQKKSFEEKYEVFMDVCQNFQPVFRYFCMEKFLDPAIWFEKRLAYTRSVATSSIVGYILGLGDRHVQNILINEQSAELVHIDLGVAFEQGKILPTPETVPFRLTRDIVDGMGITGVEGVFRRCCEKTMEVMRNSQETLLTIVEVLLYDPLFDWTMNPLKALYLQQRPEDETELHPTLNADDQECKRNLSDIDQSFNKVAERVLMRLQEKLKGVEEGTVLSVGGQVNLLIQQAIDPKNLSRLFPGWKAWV
Format: cell-based
Method in brief: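 Phosphorylated Chk2 read by AlphaScreen SureFire in human non-small cell lung cancer NCI-H460 cells, 1 hour after 8Gy ionizing radiation at 37° C. Compound added 1 hour before irradiation. Percent inhibition normalised between irradiated and non-irradiated drug-untreated signals.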

| pIC50 | SMILES |
| --- | --- |
| 6.30 to 7.00 | CC(Nc1ccc2c(c1)Sc1cccc(-c3cc(N4CCOCC4)cc(=O)[nH]3)c1S2)c1cccc(CN2CCCCC2)n1 (centres unmarked) [Example 1-12-109, 4-Morpholino-6-(7-((1-(6-(piperidin-1-ylmethyl)pyridin-2-yl)ethyl)amino)thianthren-1-yl)pyridin-2 (1H)-one] |
| 5.70 to 6.30 | CC(Nc1ccc2c(c1)Sc1cccc(-c3cc(N4CCOCC4)cc(=O)[nH]3)c1S2)c1cccc(CN2CCCC2)n1 (centres unmarked) [Example 1-12-110, 4-Morpholino-6-(7-((1-(6-(pyrrolidin-1-ylmethyl)pyridin-2-yl)ethyl)amino)thianthren-1-yl)pyridin-2 (1H)-one] |
| 6.30 to 7.00 | CC(Nc1ccc2c(c1)Sc1cccc(-c3cc(N4CCOCC4)cc(=O)[nH]3)c1S2)c1cccc(CN(C)C)n1 (centres unmarked) [Example 1-12-111, 6-(7-((1-(6-((Dimethylamino)methyl)pyridin-2-yl)ethyl)amino)thianthren-1-yl)-4-morpholino pyridin-2(1H)-one] |
| 6.30 to 7.00 | CCOC(=O)c1ccc(CNc2ccc3c(c2)Sc2cccc(-c4cc(N5CCOCC5)cc(=O)[nH]4)c2S3)nc1 [Example 1-12-112, Ethyl 6-(((6-(4-morpholino-6-oxo-1,6-dihydropyridin-2-yl)thianthren-2-yl)amino)methyl)nicotinate] |
| 6.30 to 7.00 | CC(=O)N1CCC(Nc2ccc3c(c2)Sc2cccc(-c4cc(N5CCOCC5)cc(=O)[nH]4)c2S3)CC1 [Example 1-12-115, 6-(7-((1-Acetylpiperidin-4-yl)amino)thianthren-1-yl)-4-morpholino pyridin-2 (1H)-one] |
| 6.30 to 7.00 | CC(C)N1CCC(Nc2ccc3c(c2)Sc2cccc(-c4cc(N5CCOCC5)cc(=O)[nH]4)c2S3)CC1 [Example 1-12-116, 6-(7-((1-Isopropylpiperidin-4-yl)amino)thianthren-1-yl)-4-morpholino pyridin-2(1H)-one] |
| 6.30 to 7.00 | Cc1cnc(C(CC(C)(C)O)Nc2ccc3c(c2)Sc2cccc(-c4cc(N5CCOCC5)cc(=O)[nH]4)c2S3)cn1 (centres unmarked) [Example 1-12-117, 6-(7-((3-Hydroxy-3-methyl-1-(5-methylpyrazin-2-yl)butyl)amino)thianthren-1-yl)-4-morpholino pyridin-2(1H)-one] |
| 6.30 to 7.00 | CCCC(Nc1ccc2c(c1)Sc1cccc(-c3cc(N4CCOCC4)cc(=O)[nH]3)c1S2)c1ccc(C)cn1 (centres unmarked) [Example 1-12-119, 6-(7-((1-(5-Methylpyridin-2-yl)butyl)amino)thianthren-1-yl)-4-morpholino pyridin-2 (1H)-one] |
| 6.30 to 7.00 | Cc1ccc(C(CC(C)C)Nc2ccc3c(c2)Sc2cccc(-c4cc(N5CCOCC5)cc(=O)[nH]4)c2S3)nc1 (centres unmarked) [Example 1-12-120, 6-(7-((3-Methyl-1-(5-methylpyridin-2-yl)butyl)amino)thianthren-1-yl)-4-morpholino pyridin-2(1H)-one] |
| 6.30 to 7.00 | CCC(C)C(Nc1ccc2c(c1)Sc1cccc(-c3cc(N4CCOCC4)cc(=O)[nH]3)c1S2)c1ccc(C)cn1 (centres unmarked) [Example 1-12-122, 6-(7-((2-Methyl-1-(5-methylpyridin-2-yl)butyl)amino)thianthren-1-yl)-4-morpholino pyridin-2(1H)-one] |
| 6.30 to 7.00 | Cc1ccc(C(Nc2ccc3c(c2)Sc2cccc(-c4cc(N5CCOCC5)cc(=O)[nH]4)c2S3)C2CCC2)nc1 (centres unmarked) [Example 1-12-124, 6-(7-((Cyclobutyl(5-methylpyridin-2-yl)methyl)amino)thianthren-1-yl)-4-morpholino pyridin-2(1H)-one] |
| 6.30 to 7.00 | Cc1ccc(C(Nc2ccc3c(c2)Sc2cccc(-c4cc(N5CCOCC5)cc(=O)[nH]4)c2S3)C2CCCC2)nc1 (centres unmarked) [Example 1-12-125, 6-(7-((Cyclopentyl(5-methylpyridin-2-yl)methyl)amino)thianthren-1-yl)-4-morpholino pyridin-2(1H)-one] |
| 5.70 to 6.30 | Cc1ccc(C(Nc2ccc3c(c2)Sc2cccc(-c4cc(N5CCOCC5)cc(=O)[nH]4)c2S3)C2CCCCC2)nc1 (centres unmarked) [Example 1-12-126, 6-(7-((Cyclohexyl(5-methylpyridin-2-yl)methyl)amino)thianthren-1-yl)-4-morpholino pyridin-2(1H)-one] |
| 6.30 to 7.00 | Cc1ccc(C(CC2CC2)Nc2ccc3c(c2)Sc2cccc(-c4cc(N5CCOCC5)cc(=O)[nH]4)c2S3)nc1 (centres unmarked) [Example 1-12-128, 6-(7-((2-Cyclopropyl-1-(5-methylpyridin-2-yl)ethyl)amino)thianthren-1-yl)-4-morpholino pyridin-2(1H)-one] |
| 5.70 to 6.30 | Cc1ccc(C(CC2CCCCC2)Nc2ccc3c(c2)Sc2cccc(-c4cc(N5CCOCC5)cc(=O)[nH]4)c2S3)nc1 (centres unmarked) [Example 1-12-129, 6-(7-((2-Cyclohexyl-1-(5-methylpyridin-2-yl)ethyl)amino)thianthren-1-yl)-4-morpholino pyridin-2(1H) one] |
| 6.30 to 7.00 | Cc1ccnc(C(CF)Nc2ccc3c(c2)Sc2cccc(-c4cc(N5CCOCC5)cc(=O)[nH]4)c2S3)c1 (centres unmarked) [Example 1-12-133, 6(7-((2-Fluoro-1-(4-methylpyridin-2-yl)ethyl)amino)thianthren-1-yl)-4-morpholino pyridin-2(1H)-one] |

| pIC50 | SMILES |
| --- | --- |
| 6.30 to 7.00 | CC(CN1CCCC(O)C1)Nc1ccc2c(c1)Sc1cccc(-c3cc(N4CCOCC4)cc(=O)[nH]3)c1S2 (centres unmarked) [Example 1-13-6, 6-(7-((1-(3-Hydroxypiperidin-1-yl)propan-2-yl)amino)thianthren-1-yl)-4-morpholino pyridin-2(1H)-one] |
| 6.30 to 7.00 | CC(CNC1CCCCC1)Nc1ccc2c(c1)Sc1cccc(-c3cc(N4CCOCC4)cc(=O)[nH]3)c1S2 (centres unmarked) [Example 1-13-7, 6-(7-((1-(Cyclohexylamino)propan-2-yl)amino)thianthren-1-yl)-4-morpholino pyridin-2(1H)-one] |
| 6.30 to 7.00 | CC(CNC1CCCC1)Nc1ccc2c(c1)Sc1cccc(-c3cc(N4CCOCC4)cc(=O)[nH]3)c1S2 (centres unmarked) [Example 1-13-8, 6-(7-((1-(Cyclopentylamino)propan-2-yl)amino)thianthren-1-yl)-4-morpholino pyridin-2 (1H)-one] |
| 6.30 to 7.00 | CC(CN(C)C1CCCCC1)Nc1ccc2c(c1)Sc1cccc(-c3cc(N4CCOCC4)cc(=O)[nH]3)c1S2 (centres unmarked) [Example 1-13-9, 6-(7-((1-(Cyxlohexyl(methyl)amino)propan-2-yl)amino)thianthren-1-yl)-4-morpholino pyridin-2(1H)-one] |
| 6.30 to 7.00 | CC(CN1CCOCC1C)Nc1ccc2c(c1)Sc1cccc(-c3cc(N4CCOCC4)cc(=O)[nH]3)c1S2 (centres unmarked) [Example 1-13-10, 6-(7-((1-(3-Methylmorpholino)propan-2-yl)amino)thianthren-1-yl)-4-morpholino pyridin-2(1H)-one] |
| > 7.00 | CC(CN1CC(C)OC(C)C1)Nc1ccc2c(c1)Sc1cccc(-c3cc(N4CCOCC4)cc(=O)[nH]3)c1S2 (centres unmarked) [Example 1-13-11, 6-(7-((1-(2,6-Dimethylmorpholino)propan-2-yl)amino)thianthren-1-yl)-4-morpholino pyridin-2(1H)-one] |
| 6.30 to 7.00 | CCN1CCN(CC(C)Nc2ccc3c(c2)Sc2cccc(-c4cc(N5CCOCC5)cc(=O)[nH]4)c2S3)CC1 (centres unmarked) [Example 1-13-13, 6-(7-((1-(4-Ethylpiperazin-1-yl)propan-2-yl)amino)thianthren-1-yl)-4-morpholino pyridin-2(1H)-one] |
| 6.30 to 7.00 | CC(CN1CCN(C(C)C)CC1)Nc1ccc2c(c1)Sc1cccc(-c3cc(N4CCOCC4)cc(=O)[nH]3)c1S2 (centres unmarked) [Example 1-13-14, 6-(7-((1-(4-Isopropylpiperazin-1-yl)propan-2-yl)amino)thianthren-1-yl)-4-morpholino pyridin-2(1H)-one] |
| 6.30 to 7.00 | CC(CN1CCN(c2ccncc2)CC1)Nc1ccc2c(c1)Sc1cccc(-c3cc(N4CCOCC4)cc(=O)[nH]3)c1S2 (centres unmarked) [Example 1-13-16, 4-Morpholino-6-(7-((1-(4-(pyridin-4-yl)piperazin-1-yl)propan-2-yl)amino)thianthren-1-yl)pyridin-2 (1H)-one] |
| 5.70 to 6.30 | Cc1ccnc(C(CN2CCOCC2)Nc2ccc3c(c2)Sc2cccc(-c4cc(N5CCOCC5)cc(=O)[nH]4)c2S3)n1 (centres unmarked) [Example 1-13-18, 6-(7-((1-(4-Methylpyrimidin-2-yl)-2-morpholinoethyl)amino)thianthren-1-yl)-4-morpholinopyridin-2(1H)-one] |
| 5.70 to 6.30 | CC(CN1CCNCC1)Nc1ccc2c(c1)Sc1cccc(-c3cc(N4CCOCC4)cc(=O)[nH]3)c1S2 (centres unmarked) [Example 1-14, 4-Morpholino-6-(7-((1-(piperazin-1-yl)propan-2-yl)amino)thianthren-1-yl)pyridin-2(1H)-one] |
| 6.30 to 7.00 | CC(CN1CCN(Cc2ccccc2)CC1)Nc1ccc2c(c1)Sc1cccc(-c3cc(N4CCOCC4)cc(=O)[nH]3)c1S2 (centres unmarked) [Example 1-15-1, 6-(7-((1-(4-Benzylpiperazin-1-yl)propan-2-yl)amino)thianthren-1-yl)-4-morpholinopyridin-2(1H)-one] |
| 6.30 to 7.00 | CC(CN1CCN(Cc2ccccn2)CC1)Nc1ccc2c(c1)Sc1cccc(-c3cc(N4CCOCC4)cc(=O)[nH]3)c1S2 (centres unmarked) [Example 1-15-2, 4-Morpholino-6-(7-((1-(4-(pyridin-2-ylmethyl)piperazin-1-yl)propan-2-yl)amino)thianthren-1-yl)pyridin-2(1H)-one] |
| 6.30 to 7.00 | CC(CN1CCN(Cc2cccnc2)CC1)Nc1ccc2c(c1)Sc1cccc(-c3cc(N4CCOCC4)cc(=O)[nH]3)c1S2 (centres unmarked) [Example 1-15-3, 4-Morpholino-6-(7-((1-(4-(pyridin-3-ylmethyl)piperazin-1-yl)propan-2-yl)amino)thianthren-1-yl)pyridin-2(1H)-one] |
| 6.30 to 7.00 | CC(CN1CCN(Cc2ccncc2)CC1)Nc1ccc2c(c1)Sc1cccc(-c3cc(N4CCOCC4)cc(=O)[nH]3)c1S2 (centres unmarked) [Example 1-15-4, 4-Morpholino-6-(7-((1-(4-(pyridin-4-ylmethyl)piperazin-1-yl)propan-2-yl)amino)thianthren-1-yl)pyridin-2(1H)-one] |

| SMILES | pIC50 |
| --- | --- |
| CC(CN1C2CCC1COC2)Nc1ccc2c(c1)Sc1cccc(-c3cc(N4CCOCC4)cc(=O)[nH]3)c1S2 (centres unmarked) [Example 1-13-5, 6-(7-((1-(3-Oxa-8-azabicyclo [3.2.1]octan-8-yl)propan-2-yl)amino)thianthren-1-yl)-4-morpholino pyridin-2(1H)-one] | 6.30 to 7.00 |
